Consider seven compounds from BindingDB's records for doi:10.1016/s0960-894x(03)00648-6 (Ariad Pharmaceuticals, 2003).

This assay is described as follows: Inhibition of Src-mediated dentine resorption in rabbit-osteoclast assay.

`O=P(O)(O)C(O)(CCCNc1nc(Nc2ccccc2)c2ncn(C3CCCC3)c2n1)P(=O)(O)O`: the IC50 came to 48.2 µM. Take `O=P(O)(O)CP(=O)(O)CCCNc1nc(Nc2ccccc2)c2ncn(C3CCCC3)c2n1`: the IC50 is 5.23 µM. The figure for `CN(C)CCNc1nc(Nc2ccccc2)c2ncn(C3CCCC3)c2n1` is 9.81 µM; for `N[C@H]1CC[C@H](Nc2nc(Nc3ccc(C(P(=O)(O)O)P(=O)(O)O)cc3)c3ncn(C4CCCC4)c3n2)CC1` it is 22 µM; for `N[C@H]1CC[C@H](Nc2nc(Nc3ccccc3)c3ncn(C4CCCC4)c3n2)CC1` it is 0.141 µM. With `N[C@H]1CC[C@H](Nc2nc(Nc3ccc(P(=O)(O)O)c(P(=O)(O)O)c3)c3ncn(C4CCCC4)c3n2)CC1`, the IC50 was 15.7 µM. Under `N[C@H]1CC[C@H](Nc2nc(Nc3ccc(P(=O)(O)CP(=O)(O)O)cc3)c3ncn(C4CCCC4)c3n2)CC1` stands 0.041 µM.

For orientation: IC50 means the concentration at which inhibition is half-maximal. Low readings indicate inhibition by little substance, high ones a need for much substance.
